Experiment [1] addresses T1, α1b-AR (Homo sapiens, UniProt P35368).
T1 construct: expressed in transfected cells; host or cells: COS cells, pcDNA3 vector, transient DEAE-dextran transfection
T1 sequence (P35368 1-520): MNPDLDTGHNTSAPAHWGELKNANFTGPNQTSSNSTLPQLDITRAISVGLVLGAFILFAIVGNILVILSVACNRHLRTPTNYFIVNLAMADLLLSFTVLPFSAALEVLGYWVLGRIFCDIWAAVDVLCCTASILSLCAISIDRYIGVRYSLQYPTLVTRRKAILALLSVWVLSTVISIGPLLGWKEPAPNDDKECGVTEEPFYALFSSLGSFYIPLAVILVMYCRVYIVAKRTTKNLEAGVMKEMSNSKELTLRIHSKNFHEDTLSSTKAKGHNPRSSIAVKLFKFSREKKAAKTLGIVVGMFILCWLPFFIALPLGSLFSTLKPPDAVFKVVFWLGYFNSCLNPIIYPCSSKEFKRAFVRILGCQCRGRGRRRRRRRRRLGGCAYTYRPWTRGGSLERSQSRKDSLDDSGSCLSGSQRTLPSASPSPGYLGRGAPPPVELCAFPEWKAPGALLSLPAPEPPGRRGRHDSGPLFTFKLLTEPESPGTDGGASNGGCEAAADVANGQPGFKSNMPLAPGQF
As to the kind of experiment: radioligand ([125I]-HEAT) receptor binding assay, COS cell membranes expressing cloned receptor. As to conditions: [125I]-HEAT 50 pM, 1 hour room temperature. An excerpt:
(§1) The first assay tested the ability of compounds of Formula I to bind to membrane bound receptors α1a-AR, α1b-AR and α1d-AR.
(§2) The DNA sequences of the three cloned human α1-AR subtypes have been published. […] We used published DNA sequence information to design primers for use in RT-PCR amplification of each subtype to obtain cloned cDNAs. Human poly A+ RNA was obtained from commercially available sources and included hippocampus and prostate samples, sources which have been cited in the literature. For the primary screen a radioligand binding assay was used which employed membrane preparations from cells expressing the individual cloned receptor cDNAs. Radiolabeled ligands with binding activity on all three subtypes (non-selective) are commercially available ([125I]-HEAT, [3H]-prazosin). Each α1 receptor subtype was cloned from poly A+ RNA by the standard method of reverse transcription-polymerase chain reaction (RT-PCR). The following sources of polyA+ RNA were used for the cloning of the α1 receptor subtypes: α1a-AR, human hippocampus and prostate, α1b-AR, human hippocampus, α1d-AR, human hippocampus. The resulting cDNAs were cloned into the pcDNA3 mammalian expression vector (Invitrogen Corp., San Diego Calif.). Each DNA was sequenced for verification and to detect any possible mutations introduced during the amplification process. Any deviation in sequence from the published consensus for each receptor subtype was corrected by site-directed mutagenesis.
(§3) The three α1-AR subtypes (a, b, d) were transfected into COS cells using a standard DEAE-dextran procedure with a chloroquine shock. In this procedure, each tissue culture dish (100 mm) was inoculated with 3.5×10^6 cells and transfected with 10 μg of DNA. Approximately 72 hours post-transfection, the cells were harvested and COS membranes were prepared. Transfected COS cells from 25 plates (100 mm) were scraped and suspended in 15 mL of TE buffer (50 mM Tris-HCl, 5 mM EDTA, pH 7.4). The suspension was disrupted with a homogenizer. It was then centrifuged at 1000× g for 10 minutes at 4° C. The supernatant was centrifuged at 34,500× g for 20 minutes at 4° C. The pellet was resuspended in 5 mL TNE buffer (50 mM Tris-HCl, 5 mM EDTA, 150 mM NaCl, pH 7.4). The resulting membrane preparation was aliquoted and stored at −70° C. The protein concentration was determined following membrane solubilization with TritonX-100.
(§4) The ability of each compound to bind to each of the α1-AR subtypes was assessed in a receptor binding assay. [125I]-HEAT, a non-selective α1-AR ligand, was used as the radiolabeled ligand. Each well of a 96-well plate received: 140 μL TNE, […] [125I]-HEAT diluted in TNE (50,000 cpm; final concentration 50 pM), 10 μL test compound diluted in DMSO (final concentration 1 pM-10 μM), […] COS cell membrane preparation expressing one of the three α1-AR subtypes (0.05-0.2 mg membrane protein). The plate was incubated for 1 hour at room temperature and the reaction mixtures were filtered through a Packard GF/C Unifilter filter plate. The filter plate was dried for 1 hour in a vacuum oven. Scintillation fluid ([…]) was added to each well, and the filter plate was counted in a Packard Topcount scintillation counter. Data was analyzed using GraphPad Prism software.
(§5) Tables A through D list the IC50 values expressed in nanomolar concentration for select compounds of the invention in all receptor subtypes.

In experiment [2] the target is T2, α1d-AR (Homo sapiens, UniProt P25100).
T2 construct: expressed in transfected cells; host or cells: COS cells, pcDNA3 vector, transient DEAE-dextran transfection
T2 sequence (P25100 1-572): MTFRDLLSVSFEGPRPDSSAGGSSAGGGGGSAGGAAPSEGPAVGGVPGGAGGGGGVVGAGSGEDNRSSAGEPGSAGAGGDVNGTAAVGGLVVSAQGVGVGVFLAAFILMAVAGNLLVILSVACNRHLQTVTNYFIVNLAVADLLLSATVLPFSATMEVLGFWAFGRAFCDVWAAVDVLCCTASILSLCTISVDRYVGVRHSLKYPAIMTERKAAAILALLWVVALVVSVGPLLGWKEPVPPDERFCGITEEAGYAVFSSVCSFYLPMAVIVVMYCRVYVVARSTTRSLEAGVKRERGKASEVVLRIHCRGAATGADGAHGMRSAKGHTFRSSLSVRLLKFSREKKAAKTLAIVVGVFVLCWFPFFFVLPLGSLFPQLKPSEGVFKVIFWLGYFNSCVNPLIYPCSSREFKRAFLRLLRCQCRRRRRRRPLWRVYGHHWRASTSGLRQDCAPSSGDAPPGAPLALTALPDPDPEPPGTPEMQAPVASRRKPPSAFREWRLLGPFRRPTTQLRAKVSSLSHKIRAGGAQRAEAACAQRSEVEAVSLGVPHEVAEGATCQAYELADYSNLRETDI
The experiment is described as above. To be noted: [125I]-HEAT 50 pM, 1 hour room temperature.
From the text: as §1, §2, §3, §4, §5

Take `Cc1ccc(N2C(=O)c3ccc(C(=O)NCC(O)CN4CCN(c5ccccc5OC(C)C)CC4)cc3C2=O)cc1C` (stereo not shown) [Compound 39]: the IC50 in experiment [1] was > 2 µM; in experiment [2], 0.073 µM.

With `CC(C)Oc1ccccc1N1CCN(CC(O)CNC(=O)c2ccc3c(c2)C(=O)N(c2ccc(Cl)c(Cl)c2)C3=O)CC1` (stereo not shown) [Compound 56], the concentration for half-maximal inhibition (IC50) was found to be 1.23 µM in experiment [1] and 0.04 µM in experiment [2].

Regarding `Cc1ccc(N2C(=O)c3ccc(C(=O)NCC(O)CN4CCN(c5ccccc5OC(C)C)CC4)cc3C2=O)cc1` (stereo not shown) [Compound 52], the half-maximal inhibitory concentration (IC50) in experiment [1] is > 2 µM; in experiment [2], 0.062 µM.

`CC(C)Oc1ccccc1N1CCN(CC(O)CNC(=O)c2ccc3c(c2)C(=O)N(c2ccc(O)cc2)C3=O)CC1` (stereo not shown) [Compound 58]: the results for the IC50 in experiment [1] and in experiment [2] were > 2 µM and 0.028 µM, respectively.

For the compound `CC(C)Oc1ccccc1N1CCN(CCCNC(=O)c2ccc3c(c2)C(=O)N(c2ccc(O)cc2)C3=O)CC1` [Compound 47], the IC50 in experiment [1] turned out to be 0.255 µM; in experiment [2], 0.013 µM.

Consider `COC(CNC(=O)c1ccc2c(c1)C(=O)N(c1cccc(F)c1)C2=O)CN1CCN(c2ccccc2OC(C)C)CC1` (stereo not shown) [Compound 14], for which the 50% inhibitory concentration (IC50) in experiment [1] was > 2 µM; in experiment [2], 0.407 µM.

On to `CC(C)Oc1ccccc1N1CCN(CC(O)CNC(=O)c2ccc3c(c2)C(=O)N(c2cccnc2)C3=O)CC1` (stereo not shown) [Compound 11], for which the results for the IC50 in experiment [1] and in experiment [2] were > 2 µM and 0.031 µM, respectively.

As for `Cc1cccc(N2C(=O)c3ccc(C(=O)NCC(O)CN4CCN(c5ccccc5OC(C)C)CC4)cc3C2=O)c1` (stereo not shown) [Compound 49], the 50% inhibitory concentration (IC50) in experiment [1] was > 2 µM; in experiment [2] it was 0.073 µM.

For the compound `CCOc1ccccc1N1CCN(CC(O)CNC(=O)c2ccc3c(c2)C(=O)N(c2cccc(F)c2)C3=O)CC1` (stereo not shown) [Compound 42], the IC50 in experiment [1] is > 2 µM; in experiment [2] it was 0.136 µM.

Consider `COc1ccccc1N1CCN(CC(O)CNC(=O)c2ccc3c(c2)C(=O)N(c2cccc(F)c2)C3=O)CC1` (stereo not shown) [Compound 43], for which the 50% inhibitory concentration (IC50) was > 2 µM in experiment [1] and 0.54 µM in experiment [2].

`COc1ccc(N2C(=O)c3ccc(C(=O)NCC(O)CN4CCN(c5ccccc5OC(C)C)CC4)cc3C2=O)cc1OC` (stereo not shown) [Compound 38]: the IC50 in experiment [1] was > 2 µM; in experiment [2] it was 0.175 µM.

Turning to `CC(=O)c1ccc(N2C(=O)c3ccc(C(=O)NCC(O)CN4CCN(c5ccccc5OC(C)C)CC4)cc3C2=O)cc1` (stereo not shown) [Compound 48], the IC50 in experiment [1] was > 2 µM; in experiment [2], 0.06 µM.

Consider `CC(C)Oc1ccccc1N1CCN(CC(O)CNC(=O)c2ccc3c(c2)C(=O)N(c2cccc(F)c2)C3=O)CC1` (racemic) [Compound 4], for which the IC50 in experiment [1] is 1.83 µM; in experiment [2], 0.076 µM.

Regarding `CC(C)Oc1ccccc1N1CCN(C[C@@H](O)CNC(=O)c2ccc3c(c2)C(=O)N(c2ccc(N(C)C)cc2)C3=O)CC1` [Compound 21, (S)-2-[4-(dimethylamino)phenyl]-2,3-dihydro-N-[2-hydroxy-3-[4-[2-(1-methylethoxy)phenyl]-1-piperazinyl]propyl]-1,3-dioxo-1H-isoindole-5-carboxamide], the half-maximal inhibitory concentration (IC50) in experiment [1] was > 2 µM; in experiment [2], 0.052 µM.

For the compound `CC(C)Oc1ccccc1N1CCN(CCCNC(=O)c2ccc3c(c2)C(=O)N(c2cccc(F)c2)C3=O)CC1` [Compound 6], the concentration for half-maximal inhibition (IC50) was 0.482 µM in experiment [1] and 0.022 µM in experiment [2].

On to `Cc1ccc(N2C(=O)c3ccc(C(=O)NCCCN4CCN(c5ccccc5OC(C)C)CC4)cc3C2=O)cc1` [Compound 46], for which the half-inhibitory concentration (IC50) in experiment [1] is > 2 µM; in experiment [2], 0.037 µM.

For `CC(C)Oc1ccccc1N1CCN(CC(O)CNC(=O)c2ccc3c(c2)C(=O)N(c2cccc(Cl)c2)C3=O)CC1` (stereo not shown) [Compound 54], the IC50 in experiment [1] was determined as 0.669 µM; in experiment [2], 0.037 µM.

Consider `CC(C)Oc1ccccc1N1CCN(CC(O)CNC(=O)c2ccc3c(c2)C(=O)N(c2cc(F)cc(F)c2)C3=O)CC1` (stereo not shown) [Compound 29], for which the results for the IC50 in experiment [1] and in experiment [2] were 0.886 µM and 0.038 µM, respectively.

Consider `COc1ccc(N2C(=O)c3ccc(C(=O)NCCCN4CCN(c5ccccc5OC(C)C)CC4)cc3C2=O)cc1` [Compound 45], for which the results for the IC50 in experiment [1] and in experiment [2] were 0.361 µM and 0.016 µM, respectively.

As for `CC(C)Oc1ccccc1N1CCN(C[C@@H](O)CNC(=O)c2ccc3c(c2)C(=O)N(c2cccc(F)c2)C3=O)CC1` [Compound 9], the IC50 in experiment [1] was > 2 µM; in experiment [2], 0.19 µM.

`CC(C)Oc1ccccc1N1CCN(CC(O)CNC(=O)c2ccc3c(c2)C(=O)N(c2ccc(O)cc2)C3=O)CC1` (single isomer, unassigned) [Compound 35]: the IC50 in experiment [1] is > 2 µM; in experiment [2], 0.137 µM.

With `CC(C)Oc1ccccc1N1CCN(CC(O)CNC(=O)c2ccc3c(c2)C(=O)N(c2ccc(C(C)(C)C)cc2)C3=O)CC1` (stereo not shown) [Compound 41], the IC50 is > 2 µM in experiment [1] and 0.075 µM in experiment [2].

Consider `CC(C)Oc1ccccc1N1CCN(CC(O)CNC(=O)c2ccc3c(c2)C(=O)N(c2ccccc2)C3=O)CC1` (stereo not shown) [Compound 51], for which the IC50 in experiment [1] was > 2 µM; in experiment [2] it was 0.065 µM.

Regarding `CC(C)Oc1ccccc1N1CCN(CC(O)CNC(=O)c2ccc3c(c2)C(=O)N(c2cccc(C(F)(F)F)c2)C3=O)CC1` (stereo not shown) [Compound 57], the IC50 in experiment [1] was > 2 µM; in experiment [2], 0.089 µM.

For the compound `CC(C)Oc1ccccc1N1CCN(CC(O)CNC(=O)c2ccc3c(c2)C(=O)N(c2ccc(Cl)cc2)C3=O)CC1` (stereo not shown) [Compound 53], the concentration for half-maximal inhibition (IC50) in experiment [1] turned out to be 0.606 µM; in experiment [2] it was 0.055 µM.

As for `CC(C)Oc1ccccc1N1CCN(CC(O)CNC(=O)c2ccc3c(c2)C(=O)N(c2ccc(F)cc2)C3=O)CC1` (stereo not shown) [Compound 50], the IC50 was > 2 µM in experiment [1] and 0.111 µM in experiment [2].

For the compound `CC(C)Oc1ccccc1N1CCN(CCCNC(=O)c2ccc3c(c2)C(=O)N(c2ccc(N(C)C)cc2)C3=O)CC1` [Compound 44], the values for the IC50 in experiment [1] and in experiment [2] were 0.465 µM and 0.015 µM, respectively.

In the case of `CC(C)Oc1ccccc1N1CCN(C[C@H](O)CNC(=O)c2ccc3c(c2)C(=O)N(c2cccc(F)c2)C3=O)CC1` [Compound 27], the half-inhibitory concentration (IC50) in experiment [1] was > 2 µM; in experiment [2], 0.063 µM.

As to `CC(C)Oc1ccccc1N1CCN(CC(O)CNC(=O)c2ccc3c(c2)C(=O)N(c2ccc(N(C)C)cc2)C3=O)CC1` (stereo not shown) [Compound 28], the figures for the IC50 in experiment [1] and in experiment [2] were > 2 µM and 0.044 µM, respectively.

The values above are taken from patent US6780994B2, “Phthalimido arylpiperazines useful in the treatment of benign prostatic hyperplasia” (Ortho-McNeil Pharmaceutical, Inc., priority 1998, dated 2004).
